Where “and” joins values, the source holds several entries; their conditions need not be identical. Equal values may be shown once. Read-outs that look alike come from different tables or passages of the source.
Columns and labels:
HCN4 = details: cited from earlier work
human HCN2 CNBD ΔDE = molecular target: T1, human HCN2 CNBD ΔDE (Homo sapiens, UniProt Q9UL51); assay: Isothermal titration calorimetry (ITC), CNBD ΔDE; details: cAMP titrated into 20 µM CNBD, 25 °C, mean ± SEM, n = 3
T1 sequence (Q9UL51 521-667): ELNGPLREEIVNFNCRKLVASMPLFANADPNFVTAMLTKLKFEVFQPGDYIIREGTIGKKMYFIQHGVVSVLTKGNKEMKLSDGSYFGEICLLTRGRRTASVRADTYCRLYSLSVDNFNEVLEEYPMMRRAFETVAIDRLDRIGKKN

rbHCN4 ΔDE (1-718) = rbHCN4 ΔDE (1-718) (Oryctolagus cuniculus, UniProt Q9TV66)
rbHCN4 ΔC-term (1-758) = rbHCN4 ΔC-term (1-758) (Oryctolagus cuniculus, UniProt Q9TV66); details: mean ± SEM
hHCN2 CNBD D698A [1] = molecular target: T2, hHCN2 CNBD D698A (Homo sapiens, UniProt Q9UL51, D698A); details: cAMP titrant
rbHCN4 D750A = rbHCN4 D750A (Oryctolagus cuniculus, UniProt Q9TV66, D750A)
[2] = molecular target: isolated C-linker and CNBD; details: ref Chow et al (2012), cited from earlier work
[3] = test system: full-length HCN2 with a C-linker and CNBD from HCN4; details: ref Xu et al, JBC, 2010; cited from earlier work
human HCN2 CNBD ΔDE’ = molecular target: T3, human HCN2 CNBD ΔDE’ (Homo sapiens, UniProt Q9UL51); assay: Isothermal titration calorimetry (ITC), CNBD ΔDE’
T3 sequence (Q9UL51 521-672): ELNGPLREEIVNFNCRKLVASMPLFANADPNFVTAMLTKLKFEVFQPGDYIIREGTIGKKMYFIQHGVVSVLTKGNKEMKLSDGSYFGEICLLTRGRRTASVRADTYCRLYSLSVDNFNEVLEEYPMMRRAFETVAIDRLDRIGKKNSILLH

hHCN2 CNBD R662A [4] = molecular target: T4, hHCN2 CNBD R662A (Homo sapiens, UniProt Q9UL51, R662A); assay: biochemical
hHCN2 CNBD R662A [5] = molecular target: T4, hHCN2 CNBD R662A; details: cAMP titrant
rbHCN4 ΔDE’ (1-723) = rbHCN4 ΔDE’ (1-723) (Oryctolagus cuniculus, UniProt Q9TV66)
hHCN2 CNBD D698A [6] = molecular target: T2, hHCN2 CNBD D698A; assay: biochemical
human HCN2 CNBD ΔC-term = molecular target: T5, human HCN2 CNBD ΔC-term (Homo sapiens, UniProt Q9UL51); assay: Isothermal titration calorimetry (ITC), CNBD ΔC-term; details: mean ± SEM, n = 3
T5 sequence (Q9UL51 521-706): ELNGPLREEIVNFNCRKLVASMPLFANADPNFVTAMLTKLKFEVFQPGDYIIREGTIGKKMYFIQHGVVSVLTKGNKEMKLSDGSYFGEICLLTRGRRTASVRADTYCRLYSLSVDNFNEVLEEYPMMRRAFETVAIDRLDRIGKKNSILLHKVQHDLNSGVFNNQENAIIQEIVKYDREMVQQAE

human HCN2 CNBD ΔE = molecular target: T6, human HCN2 CNBD ΔE (Homo sapiens, UniProt Q9UL51); assay: Isothermal titration calorimetry (ITC), CNBD ΔE; type: binding; details: mean ± SEM, n = 3
T6 sequence (Q9UL51 521-681): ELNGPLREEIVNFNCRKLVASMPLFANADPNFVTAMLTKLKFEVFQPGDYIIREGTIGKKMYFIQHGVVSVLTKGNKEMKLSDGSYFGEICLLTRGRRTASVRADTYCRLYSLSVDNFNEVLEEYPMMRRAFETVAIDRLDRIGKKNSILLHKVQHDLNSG

[7] = 5 µM cAMP in pipette, mean ± SEM
[8] = Hill fit of shift in V1/2 vs cAMP concentration
[9] = KD of individual experiments (source data Fig. 4e), cAMP titrant, unit inferred
[10] = KD, cAMP titrated into 20 µM CNBD, 25 °C, mean ± SEM, n = 3
[11] = KD, cAMP titrated into 20 µM CNBD, 25 °C

rbHCN4 ΔDE (1-718), sequence (Q9TV66 1-718, stated change not applied): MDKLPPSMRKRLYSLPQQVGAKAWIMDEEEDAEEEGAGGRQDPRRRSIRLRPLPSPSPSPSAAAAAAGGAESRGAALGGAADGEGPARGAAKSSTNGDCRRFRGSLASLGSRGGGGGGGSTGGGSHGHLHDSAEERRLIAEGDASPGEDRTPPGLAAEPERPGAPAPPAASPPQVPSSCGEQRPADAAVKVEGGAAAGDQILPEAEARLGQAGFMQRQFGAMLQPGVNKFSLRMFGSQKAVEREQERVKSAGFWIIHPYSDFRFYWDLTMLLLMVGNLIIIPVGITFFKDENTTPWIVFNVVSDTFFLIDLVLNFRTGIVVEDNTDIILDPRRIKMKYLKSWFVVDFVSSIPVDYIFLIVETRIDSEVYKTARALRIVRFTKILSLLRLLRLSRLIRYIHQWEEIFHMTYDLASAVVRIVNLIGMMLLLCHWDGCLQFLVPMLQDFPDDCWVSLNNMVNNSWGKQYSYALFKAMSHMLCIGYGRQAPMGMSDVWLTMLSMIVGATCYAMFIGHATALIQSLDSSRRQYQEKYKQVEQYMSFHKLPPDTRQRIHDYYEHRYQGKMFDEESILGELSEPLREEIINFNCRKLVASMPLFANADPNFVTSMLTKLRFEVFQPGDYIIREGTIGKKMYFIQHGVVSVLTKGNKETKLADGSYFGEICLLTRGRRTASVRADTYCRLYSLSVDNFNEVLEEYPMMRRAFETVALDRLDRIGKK
T4 sequence (Q9UL51 521-706 R662A): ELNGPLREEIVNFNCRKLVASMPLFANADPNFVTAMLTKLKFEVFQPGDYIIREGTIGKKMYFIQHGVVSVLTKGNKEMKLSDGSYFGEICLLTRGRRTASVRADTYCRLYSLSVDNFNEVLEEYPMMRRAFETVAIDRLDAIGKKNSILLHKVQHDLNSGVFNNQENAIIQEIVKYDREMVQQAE
T2 sequence (Q9UL51 521-706 D698A): as the sequence (Q9UL51 521-706 R662A) above, with A142R, D178A counted along it
rbHCN4 ΔC-term (1-758), sequence (Q9TV66 1-758, stated change not applied): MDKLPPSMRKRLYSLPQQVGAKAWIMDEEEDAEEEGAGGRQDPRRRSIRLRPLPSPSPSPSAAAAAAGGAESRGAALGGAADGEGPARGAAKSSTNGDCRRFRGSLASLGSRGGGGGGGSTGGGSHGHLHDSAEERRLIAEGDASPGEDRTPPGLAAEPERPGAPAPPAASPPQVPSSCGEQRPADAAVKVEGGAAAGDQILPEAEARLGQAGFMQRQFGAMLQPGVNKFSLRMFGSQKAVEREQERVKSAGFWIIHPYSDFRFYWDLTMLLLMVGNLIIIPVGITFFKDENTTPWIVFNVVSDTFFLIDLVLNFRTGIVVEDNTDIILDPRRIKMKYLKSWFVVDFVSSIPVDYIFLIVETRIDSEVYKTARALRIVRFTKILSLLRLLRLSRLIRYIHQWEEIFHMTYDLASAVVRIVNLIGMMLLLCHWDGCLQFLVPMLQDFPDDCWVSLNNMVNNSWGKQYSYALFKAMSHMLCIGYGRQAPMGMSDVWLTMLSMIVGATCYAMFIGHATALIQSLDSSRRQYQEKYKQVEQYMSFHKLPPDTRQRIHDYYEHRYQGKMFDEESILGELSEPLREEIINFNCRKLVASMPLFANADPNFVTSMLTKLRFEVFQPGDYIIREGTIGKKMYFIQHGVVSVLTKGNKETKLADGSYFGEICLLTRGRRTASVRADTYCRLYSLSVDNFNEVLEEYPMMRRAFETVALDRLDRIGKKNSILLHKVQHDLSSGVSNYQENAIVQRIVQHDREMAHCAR
rbHCN4 ΔDE’ (1-723), sequence (Q9TV66 1-723, stated change not applied): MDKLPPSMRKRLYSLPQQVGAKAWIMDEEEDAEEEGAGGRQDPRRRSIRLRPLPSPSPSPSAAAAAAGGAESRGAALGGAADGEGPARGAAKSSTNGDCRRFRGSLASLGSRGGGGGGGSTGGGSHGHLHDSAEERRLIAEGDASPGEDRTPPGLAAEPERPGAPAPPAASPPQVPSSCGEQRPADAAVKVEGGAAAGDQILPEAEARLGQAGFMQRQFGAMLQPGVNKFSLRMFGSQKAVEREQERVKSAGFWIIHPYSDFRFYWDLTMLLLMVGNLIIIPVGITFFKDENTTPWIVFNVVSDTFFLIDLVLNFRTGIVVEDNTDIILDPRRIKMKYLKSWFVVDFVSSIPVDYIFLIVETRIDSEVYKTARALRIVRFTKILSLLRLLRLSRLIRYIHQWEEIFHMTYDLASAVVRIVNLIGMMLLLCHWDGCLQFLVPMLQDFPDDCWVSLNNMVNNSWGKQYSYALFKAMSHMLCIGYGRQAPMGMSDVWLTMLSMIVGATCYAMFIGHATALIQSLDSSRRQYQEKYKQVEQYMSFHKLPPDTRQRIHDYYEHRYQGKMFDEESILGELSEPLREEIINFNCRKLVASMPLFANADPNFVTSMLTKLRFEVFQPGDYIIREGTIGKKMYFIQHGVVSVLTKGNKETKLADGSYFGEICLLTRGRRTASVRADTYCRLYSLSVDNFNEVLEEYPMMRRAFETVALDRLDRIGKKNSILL
rbHCN4 D750A, sequence (Q9TV66 whole entry D750A): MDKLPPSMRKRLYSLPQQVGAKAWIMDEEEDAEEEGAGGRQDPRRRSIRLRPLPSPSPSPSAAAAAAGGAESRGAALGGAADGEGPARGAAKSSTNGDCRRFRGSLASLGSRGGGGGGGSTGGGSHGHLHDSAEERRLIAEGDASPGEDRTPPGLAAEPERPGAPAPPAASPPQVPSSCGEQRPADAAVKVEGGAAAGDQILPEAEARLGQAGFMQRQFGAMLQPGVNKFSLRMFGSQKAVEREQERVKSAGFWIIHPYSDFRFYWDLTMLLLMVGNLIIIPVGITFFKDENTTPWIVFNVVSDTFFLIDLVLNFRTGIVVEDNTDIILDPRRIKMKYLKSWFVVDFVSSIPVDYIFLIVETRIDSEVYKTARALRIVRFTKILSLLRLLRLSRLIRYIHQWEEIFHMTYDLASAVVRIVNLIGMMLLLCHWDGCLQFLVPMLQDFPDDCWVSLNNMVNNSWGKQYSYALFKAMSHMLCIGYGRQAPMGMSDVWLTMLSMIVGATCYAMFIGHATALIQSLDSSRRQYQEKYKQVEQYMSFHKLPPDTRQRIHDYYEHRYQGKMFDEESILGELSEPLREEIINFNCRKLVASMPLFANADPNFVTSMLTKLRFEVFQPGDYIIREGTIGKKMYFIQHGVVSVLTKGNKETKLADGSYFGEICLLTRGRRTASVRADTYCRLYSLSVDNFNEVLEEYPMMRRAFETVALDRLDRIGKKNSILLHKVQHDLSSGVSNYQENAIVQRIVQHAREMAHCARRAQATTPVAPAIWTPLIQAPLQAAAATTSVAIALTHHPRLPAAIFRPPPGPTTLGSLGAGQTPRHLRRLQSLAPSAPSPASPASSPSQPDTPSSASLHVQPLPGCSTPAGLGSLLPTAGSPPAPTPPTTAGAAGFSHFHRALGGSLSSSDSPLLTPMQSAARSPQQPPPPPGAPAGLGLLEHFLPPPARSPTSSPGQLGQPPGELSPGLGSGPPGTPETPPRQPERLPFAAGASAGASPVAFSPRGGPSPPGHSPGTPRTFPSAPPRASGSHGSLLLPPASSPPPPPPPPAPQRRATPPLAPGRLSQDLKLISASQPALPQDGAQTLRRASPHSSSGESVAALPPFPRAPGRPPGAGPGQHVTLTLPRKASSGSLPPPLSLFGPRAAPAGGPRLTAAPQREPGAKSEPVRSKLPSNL

Nc1ncnc2c1ncn2[C@@H]1O[C@@H]2COP(=O)(O)O[C@H]2[C@H]1O [cAMP, Adenosine 3′,5′-cyclic monophosphate]
EC50 (HCN4; ref Baruscotti et al, 2017): 1670 nM | EC50 (HCN4; ref Milanesi et al, 2006): 1530 nM | EC50 (HCN4; ref Moller et al 2014): 820 nM | Kd (human HCN2 CNBD ΔDE): 9500 ± 700 nM | V1/2 with cAMP (rbHCN4 ΔDE (1-718); [7]): -102.4± 0.6 mV | k (inverse slope factor) with cAMP (rbHCN4 ΔDE (1-718); 5 µM cAMP, mean ± SEM): 7.6 ± 0.3 mV | Hill coefficient (nH) (rbHCN4 ΔDE (1-718); [8]): 1 | V1/2 with cAMP (rbHCN4 ΔC-term (1-758); 1 µM cAMP in pipette): -88.9 ± 1.5 mV | k (inverse slope factor) with cAMP (rbHCN4 ΔC-term (1-758); 1 µM cAMP): 9.6 ± 0.5 mV | stoichiometry (N) (hHCN2 CNBD D698A [1]; mean ± SEM, n = 3): 0.8 ± 0.1 | N, representative sample (Fig. 4d) (hHCN2 CNBD D698A [1]; single ITC experiment): 0.7 | V1/2 with cAMP (rbHCN4 D750A; [7]): -96 ±1.7 mV | k (inverse slope factor) with cAMP (rbHCN4 D750A; 5 µM cAMP, mean ± SEM): 9 ± 0.5 mV | Hill coefficient (nH) (rbHCN4 D750A; [8]): 0.8 | Kd ([2]; read-out: binding affinity, higher affinity, protein at ~100uM or greater, predominantly tetramers): 120 nM | Kd ([2]; read-out: binding affinity, lower affinity, protein at ~100uM or greater, predominantly tetramers): 1500 nM | Kd ([2]; read-out: binding affinity, single lower affinity, first two helices of the C-linker removed, monomeric protein): ~1800 nM | Kd ([2]; read-out: binding affinity, single lower affinity, lower protein concentrations, tetramers less frequent): ~1500 nM | EC50 [3]: 240 nM | Kd (human HCN2 CNBD ΔDE’; cAMP titrated into 20 µM CNBD, 25 °C, mean ± SEM, n = 3): 1200 ± 30 nM | Kd (human HCN2 CNBD ΔDE’; representative sample (Fig. 2d), cAMP titrant, single ITC experiment): 1200 nM | stoichiometry (N) (human HCN2 CNBD ΔDE’; cAMP titrant, mean ± SEM, n = 3): 0.8 ± 0.1 | Kd (hHCN2 CNBD R662A [4]; [9]): 1080 nM and 980 nM and 1100 nM | Kd (hHCN2 CNBD R662A [4]; [10]): 1000 ± 30 nM | stoichiometry (N) (hHCN2 CNBD R662A [5]; mean ± SEM, n = 3): 0.9 ± 0.1 | N, representative sample (Fig. 4d) (hHCN2 CNBD R662A [5]; single ITC experiment): 0.7 | V1/2 with cAMP (rbHCN4 ΔDE’ (1-723); [7]): -95.5 ± 0.8 mV | k (inverse slope factor) with cAMP (rbHCN4 ΔDE’ (1-723); 5 µM cAMP, mean ± SEM): 8.4 ± 0.1 mV | Hill coefficient (nH) (rbHCN4 ΔDE’ (1-723); [8]): 1 | Kd (hHCN2 CNBD D698A [6]; [9]): 1700 nM and 1600 nM and 1300 nM | Kd (hHCN2 CNBD D698A [6]; [10]): 1500 ± 100 nM | Kd (hHCN2 CNBD D698A [6]; KD, representative sample (Fig. 4d), cAMP titrant, single ITC experiment): 1000 nM | Kd (human HCN2 CNBD ΔC-term; [11]): 300 ± 10 nM | stoichiometry (N) (human HCN2 CNBD ΔC-term; cAMP titrant): 0.4 ± 0.1 | Kd (human HCN2 CNBD ΔE; [11]): 1200 ± 100 nM | stoichiometry (N) (human HCN2 CNBD ΔE; cAMP titrant): 1.0 ± 0.1
